Laboratory results from patent US10407488B2, “Therapy for treatment or prevention of conditions associated with bleeding or hypocoagulation” (THE REGENTS OF THE UNIVERSITY OF CALIFORNIA, priority 2013, dated 2019).

Experiments:
[1] = system: thrombin generation in plasma of patients with congenital FVIII-deficiency and inhibitors; experiment: Thrombin generation in plasma of patients with congenital FVIII-deficiency and high titer inhibitors, spiked in vitro; type: biochemical, human; details: factor alone; five patient samples, BU-titer 41-280
Excerpt: Normal pooled human plasma and plasma from human FVIII-deficient patients with and without inhibitors (titer specified in Bethesda Units (BU)) was purchased from George King Bio-Medical (Overland Park, Kans., USA). In addition, plasma and clinical information was obtained from two patients with severe FVIII-deficiency (<1% intrinsic FVIII-activity levels) and inhibitors (titers determined in BU by the clinical laboratory using the Nijmegen assay (17) regularly visiting the Hemophilia Treatment Center at the University of California, San Diego (UCSD) after informed consent was obtained. Patient confidentiality safeguards, sample and data acquisition methods were approved by the UCSD Institutional Review Board. Blood was drawn into 3.8% sodium citrate (pH 5.5) at a 9:1 blood/anticoagulant volume ratio, and processed immediately. […]
Endogenous thrombin potential (ETP) assays were performed as described (19). […] In some experiments, 1.25 μg/ml anti-FVIII antibody was added to the plasma and ETP was determined after 1 hour of preincubation. Fluorescence was measured at excitation/emission wavelengths of […] using Gemini EM fluorescent plate reader (Molecular Devices). Fluorescence time course data were converted to nM thrombin as described (20). ETP, defined as the area under the curve (AUC) and the peak height were determined using Origin or GraphPad Prism software.

[2] = system: thrombin generation in normal human plasma with rhAPC; experiment: Thrombin generation in normal human plasma in the presence of rhAPC; type: biochemical
Method: BU titer values for FVIII antibodies added to FVIII-deficient plasma were determined using a modified Nijmegen Bethesda assay (Barrow and Lollar; JTH 2006, 4:2223-2229). Briefly, antibody was serially diluted in HBS with 0.05% Tween 80 and mixed 1:1 with pooled normal plasma that was supplemented with 100 mM Imidazole, pH 7.0. Samples were incubated at 37° C. for 2 hours then assayed by aPTT with APTT XL reagent (Pacific Hemostasis). A standard curve was derived from a serial dilution of normal plasma into FVIII deficient plasma that was also mixed 1:1 with HBST and incubated at 37° C. for 2 hours. Percent FVIII activity was plotted versus mg/ml of antibody and residual activity of 50% was defined as 1 BU/ml. In addition, endogenous thrombin potential (ETP) assays were performed as described (3). Briefly FVa mutants or saline were added to human or murine plasma (George King Bio-Medical; mouse source, 50% v/v) supplemented with […] corn trypsin inhibitor (Haematologic Technologies), 10 mM CaCl2, 10 μM phospholipid vesicles (80% phosphatidylcholine, 20% phosphatidylserine, prepared as described (6), 0.2 pM soluble tissue factor (Innovin®, Dade Behring), and 0.4 mM Z-Gly-Gly-Arg-AMC (thrombin substrate, Bachem) in HBS. After mixing, 100 μL was transferred to a FluoroNunc microtiter plate at 37° C. to monitor fluorescence (excitation at 360 nm/emission at 460 nm; Gemini EM fluorescent plate reader (Molecular Devices)). Fluorescence time course data were converted to nM thrombin as described (7). ETP, defined as the area under the curve, was determined using Prism 5.04 (Graphpad).
APC-mediated inactivation of FVa was analyzed in ETP assays and aPTT clotting assays. FVa mutants were incubated with equal volumes of either recombinant human APC (Xigris®) or buffer in human and murine Balb/c plasma.

[3] = system: clot lysis time in NHP with anti-FVIII antibody; experiment: Clot lysis assay (t-PA mediated) in normal human plasma with anti-FVIII antibody; type: biochemical
Method: FIGS. 28A and 28B show the synergistic effect of ^superFVa in combination with rhFVIIa on clot stabilization in NHP spiked with anti-FVIII antibody. Clot lysis time was determined by t-PA mediated fibrinolysis following thrombin induced fibrin clot formation in NHP spiked with anti-FVIII-antibody. (A) Increasing concentrations of rhFVIIa were added in the absence (open circle) or presence (open square) of ^superFVa (0.37 nM). (B) Increasing concentrations of ^superFVa were added in the absence (open circle) or presence (open square) of rhFVIIa (0.37 nM). Clot lysis time of NHP without inhibitors in the absence (open upward triangle) or presence of CPI (open downward triangle) represent control experiments. Normal human plasma; NHP. Carboxypeptidase inhibitor from potato tubers; CPI. Error bars represent standard error of the mean (n≥3).
Clot stability was studied as t-PA induced clot lysis time in NHP with anti-FVIII antibodies (GMA8015) at 10 μg/mL, as well as in FVIIIdP. The concentration of antibody was based on maximal shortening of the clot lysis time from approximately 105 min to 75 min following antibody titration (data not shown). The clot lysis time in the presence of antibody (10 μg/mL) was similar to the clot lysis time in the presence of CPI, which was used as control since it causes suppression of Thrombin Activatable Fibrinolysis Inhibitor (TAFI) activation. […]

^superFVa: engineered APC-resistant FVa variant (SEQ ID NO:4): R306Q, R506Q, R679Q, Cys609-Cys1691 disulfide, S2183A, B-domain deleted
effect on ETP and peak height [1]: increased ETP and peak height in all five patient samples | rescue of APC-induced reduction of thrombin generation ([2]; factor alone, rhAPC, normal human plasma (FIG. 16)): corrected thrombin generation to levels to those of normal human plasma | ETP restored ([2]; human plasma, ETP maximally suppressed by APC): 90-100% | effect on thrombin generation suppressed by APC ([2]; human plasma, concentrations where ^superFVa restores): fully restored thrombin generation | concentration at which clot lysis times returned to normal ([3]; factor alone, NHP with anti-FVIII antibody): 3.33 nM | concentration showing enhancement of clot lysis time ([3]; factor individually, 10 μg/ml anti-FVIII antibody): 2 to 5 µg/mL
